Measured values published in patent US12544354B2 (RIKEN, priority 2019, dated 2026).

What was measured:
[1] = test system: mitochondrial permeability transition pore (mPTP); experiment: mPTP-opening inhibitory activity test (calcium retention capacity, CRC) in mitochondria isolated from mouse brain; format: biochemical; conditions: for mPTP-Opening inhibitory activity at 1.0 μM compound concentration CRC/CRC (DMSO): mitochondria from C57B6J mouse brain, ratio of calcium required for mPTP-opening with compound vs DMSO control
Experimental: In this test, inhibitory effects of mPTP in mitochondria isolated from the brain were evaluated.
The mPTP-opening inhibitory activity and efficacy of test compounds are determined by evaluating inhibitory potency thereof against opening of mPTP formed of inner and outer mitochondrial membranes, by in-vitro assay described later.
The animal was humanely euthanized by cervical dislocation, and the brain was excised out. The brain excised out was put in an isolation buffer (280 mM sucrose, 10 mM 3-morpholinopropanesulfonic acid (MOPS), 1 mM ethylenediamine tetraacetic acid dipotassium salt (EDTA-2K), pH 7.2) cooled in ice. The brain was rinsed with the buffer cooled in ice and cut by scissors in the buffer put in a beaker placed on ice. The cut pieces were transferred to a Dounce glass homogenizer. The buffer was exchanged with an isolation buffer containing 12% Percoll, and the cut pieces were homogenized. The cut pieces were homogenized four times by use of a loose pestle and 8 times by use of a tight pestle while vertically rotating. The homogenate was gently overlaid on the layer formed of two portions different in density of Percoll (26%, 40%) in 50 ml-centrifuge tubes, which were then spun by a centrifuge (HITACHI CR22N, rotor R20A2) maintained at 4° C. at 30700×g for 5 minutes. The intermediate layer between the 26% layer and the 40% layer was carefully sucked by use of a 23 G needle, added in an isolation buffer (24 ml) previously cooled in ice, and spun by a centrifuge at 16700×g to allow mitochondria to precipitate as a pellet. The supernatant was gently discarded and the mitochondria was suspended. The amount of the mitochondrial suspension was measured and an aliquot of 20 μl was taken for determining protein concentration. To the mitochondrial suspension, 10 mg/ml BSA ([…]) was added and further an isolation buffer was added up to a volume of 1.2 ml (final concentration 1 mg/mL). The suspension was transferred to 2.0 ml tubes and then centrifuged. The supernatant was discarded and mitochondrial pellets were obtained and stored in ice. The protein amount of mitochondria was measured in accordance with the Bradford method.
To mitochondrial pellets isolated, a measurement buffer (210 mM sucrose, 20 mM potassium chloride, 3 mM glycylglycine and 1 mM potassium dihydrogen phosphate) containing a fluorescent calcium indicator, calcium green-5N (200 nM), was added to as to obtain a concentration of 150 μg/ml. In this manner, a mitochondrial suspension was prepared. Calcium green, which binds to calcium and emits fluorescence, is used as a probe for quantification. When calcium green is added to a mitochondrial suspension, the presence of calcium in the external fluid thereof can be detected. The mitochondrial suspension prepared by suspending mitochondria with the measurement buffer containing 400 nM calcium green was added in wells of a 96 well plate. To predetermined wells, a measurement buffer containing 40 mM glutamic acid, 4 mM malic acid and a double-concentration of test compound was added to prepare a mitochondrial suspension of 100 μl/well (final concentration: 20 mM glutamic acid, 2 mM malic acid). To the mitochondrial suspension in the wells of the 96 well plate, calcium was continuously added dropwise (10 μl of 117 μM CaCl2) was added in a rate of 100 μl/well, final concentration 11.7 μM), and the fluorescence value reflecting the amount of extramitochondrial calcium was determined ([…]). The measurement was carried out by a functional drug screening system, FDSS3000 (Hamamatsu Photonics K. K.). Incubation at 30° C. and shaking of the well plate were carried out by devices equipped in the system. Calcium (CaCl2)) was added at intervals of one minute in accordance with the program of FDSS3000 software.

PC12 cells = experiment: Cell death inhibitory activity test: glutamic acid-induced cell death of PC12 cells (MTS assay); format: cell-based, rat; conditions: test compound 1, 3, 10 or 30 μM, added 24 h before glutamic acid; cell viability by MTS 48 h later
Excerpt: Simultaneously when mitochondria take up calcium, the membrane potential dissipates and mPTP opens. Physiologically, hydrogen peroxide generates in the mitochondrial respiratory chain with opening of mPTP and may further produce a damage to not only mitochondria but also cells. […] Oxidative stress ascribed to hydrogen peroxide may cause cell damage downstream of Ca uptake. In the test, the relationship between mPTP-opening inhibitory effect on cells and cell death was studied by using rat adrenal pheochromocytoma-derived PC12 cells.
The PC12 cells used in the test are derived from rat adrenal pheochromocytoma but are differentiated into sympathetic neurons by a nerve growth factor, and known to cause cell death in a glutamic acid concentration dependent manner (Pereira C F, Oliveira, R, Neuroscience Research, vol. 37(3), p. 227-236, 2000, Oxidative glutamate toxicity involves mitochondrial dysfunction and perturbation of intracellular Ca^2+ homeostasis).
A growth medium (composition: Dulbecco modified MEM culture medium (Gibco 11885-084) containing 100 units of penicillin, 100 μg/mL streptomycin (Gibco 15-140-122), 2.5% inactivated fetal bovine serum (Gibco 10437-028) and 2.5% inactivated horse serum (Gibco 16050-130)) were prepared. PC12 cells were cultured in a culture dish (diameter: 100 mm, Corning 353003) containing 10 ml of the growth medium. PC12 cells cryopreserved were thawed, cultured in the growth medium for at least one week and used in the test. PC12 cells were removed with 0.25% trypsin-1 mM EDTA and subcultured. The following experiments were all carried out at 37° C. by a CO2 incubator in an atmosphere containing 5% CO2. […]
After addition of MTS for CellTiter 96 ® AQueous One Solution Cell Proliferation Assay (Promega G3580)), the microplate was placed in a CO2 incubator and incubation was carried out for 4 hours. Absorbance of individual wells at a wavelength of 490 nm was measured by a spectrophotometer (SpectraMax i3 manufactured by Molecular Devices) with 700 nm used as a reference wavelength. A cell viability was calculated in accordance with the following expression (1) based on the absorbance obtained. Note that, to reduce background non-specific absorption due to excessive cell residue, culture medium and others, the obtained absorbance data were corrected based on the absorbance at a reference wavelength of 700 nm. […] Cell viability (%)=[(Abs−Abm)/(Abc−Abm)]×100 Expression (1) • Abs: Absorbance of sample (well containing cells, glutamic acid-added medium and MTS solution) • Abc: Absorbance of negative control (well containing cells, control medium and MTS solution) • Abm: Absorbance of blank (well containing control medium and MTS solution) (Suppression of Cell Death in the Presence of Test Compound) […]

[2] = test system: local cerebral ischemia mouse model (pMCA-O); experiment: Suppression test for cell death caused by cerebral ischemia: local cerebral ischemia mouse model by permanent middle cerebral artery occlusion (pMCA-O); conditions: mice, 100 mg/kg intraperitoneal
Experimental: In the test, to evaluate the action of test compounds to protect cells from cell death in vivo, a local cerebral ischemia mouse model was prepared by permanent middle cerebral artery occlusion (pMCA-O) and actions of test compounds to protect the cells at a brain injury site one day after occlusion were examined. Note that, for preparing a permanent middle cerebral artery occlusion model, C57BL/6JJmsSlc was used.
As the solvent, dimethyl sulfoxide (DMSO: FUJIFILM Wako Pure Chemical Corporation), polyethylene glycol (PEG400: FUJIFILM Wako Pure Chemical Corporation) and phosphate buffered saline (PBS: FUJIFILM Wako Pure Chemical Corporation) were used. The final concentrations of DMSO, PEG400 and PBS were set to be 15%, 50% and 35%, respectively. […]
One day after cerebral ischemia, the head of each of the mice was removed under anesthesia with 2% isoflurane and the whole brain was carefully excised out. […] These brain sections were stained in physiological saline containing 10 mL of 2% 2,3,5-triphenyl tetrazolium chloride (TTC) (manufactured by Hayashi Pure Chemical Ind., Ltd.) for 30 minutes (Bederson, J B et al., Stroke, 1986, vol. 17, p. 1304-1308, Evaluation of 2,3,5-triphenyltetrazolium chloride as a stain for detection and quantification of experiment a cerebral Infarction in rats). […]
The size of a brain injury site was determined as follows.

SMILES: C[C@@]12OC(=O)[C@@H](C(=O)c3c(O)cccc31)[C@@H]2CC1=C(O)C(=O)C(C(N)=O)=C(O)C1=O [Compound I-1, 2,5-dihydroxy-4-(((1S,4R,10S)-6-hydroxy-1-methyl-3,5-dioxo-1,3,4,5-tetrahydro-1,4-methanobenzo[c]oxepin-10-yl)methyl)-3,6-dioxocyclohexa-1,4-dienocarboxamide]
- mPTP-Opening inhibitory activity at 1.0 μM compound concentration CRC/CRC (DMSO) [1]: 2.96
- concentration needed to inhibit mPTP-opening compared with cyclosporine A (FIG. 2) ([1]; dose response of CRC/CRC(DMSO), FIG. 2): at a lower concentration than cyclosporine A
- protection of PC12 cells from cell death induced by glutamic acid (FIG. 4) (PC12 cells): protected PC12 cells, to no small extent
- deaths of animals during the test period [2]: not seen
- average brain injury rate, lower than the control group ([2]; one day after cerebral ischemia, total brain injury rate P<0.05, cerebral cortex injury rate P<0.01): about 25%

SMILES: C[C@@]12OC(=O)[C@@H](C(=O)c3c(O)cccc31)[C@@H]2Cc1c(O)c(O)c(C(N)=O)c(O)c1O [Compound I-2, 2,3,5,6-tetrahydroxy-4-(((1S,4R,10S)-6-hydroxy-1-methyl-3,5-dioxo-1,3,4,5-tetrahydro-1,4-methanobenzo[c]oxepin-10-yl)methyl)benzamide]
- mPTP-Opening inhibitory activity at 1.0 μM compound concentration CRC/CRC (DMSO) [1]: 2.92

SMILES: CN(C)c1ccc(O)c2c1C[C@@H](CC1=C(O)C(=O)C(C(N)=O)=C(O)C1=O)CC2=O [Compound I-3, (S)-4-((8-(dimethylamino)-5-hydroxy-4-oxo-1,2,3,4-tetrahydronaphthalen-2-yl)methyl)-2,5-dihydroxy-3,6-dioxocyclohexa-1,4-dienecarboxamide]
- mPTP-Opening inhibitory activity at 1.0 μM compound concentration CRC/CRC (DMSO) [1]: 1.22

SMILES: CC(=O)Oc1cccc2c1C(=O)[C@@H]1C(=O)O[C@@]2(C)[C@H]1Cc1c(OC(C)=O)c(OC(C)=O)c(C(N)=O)c(OC(C)=O)c1OC(C)=O [Compound I-4, 3-(((1S,4R,10S)-6-acetoxy-1-methyl-3,5-dioxo-1,3,4,5-tetrahydro-1,4-methanobenzo[c]oxepin-10-yl)methyl)-6-carbamoyl benzene-1,2,4,5-tetraryl tetraacetate]
- protection of PC12 cells from cell death induced by glutamic acid (FIG. 4) (PC12 cells): stronger protective actions

SMILES: CC(C)(C)C(=O)Oc1cccc2c1C(=O)[C@@H]1C(=O)O[C@@]2(C)[C@H]1Cc1c(OC(=O)C(C)(C)C)c(OC(=O)C(C)(C)C)c(C#N)c(OC(=O)C(C)(C)C)c1OC(=O)C(C)(C)C [Compound I-5]
- protection of PC12 cells from cell death induced by glutamic acid (FIG. 4) (PC12 cells): stronger protective actions

SMILES: C[C@@]12OC(=O)[C@@H](C(=O)c3c(OC(=O)c4ccccc4)cccc31)[C@@H]2Cc1c(OC(=O)c2ccccc2)c(OC(=O)c2ccccc2)c(C(N)=O)c(OC(=O)c2ccccc2)c1OC(=O)c1ccccc1 [Compound I-6, 3-(((1S,4R,10S)-6-(benzoyloxy)-1-methyl-3,5-dioxo-1,3,4,5-tetrahydro-1,4-methanobenzo[c]oxepin-10-yl)methyl)-6-carbamoyl benzene-1,2,4,5-tetraryl tetrabenzoate)]
- protection of PC12 cells from cell death induced by glutamic acid (FIG. 4) (PC12 cells): stronger protective actions

SMILES: C[C@@]12OC(=O)[C@@H](C(=O)c3c(O)ccc(Cl)c31)[C@@H]2CC1=C(O)C(=O)C(C(N)=O)=C(O)C1=O [Compound Ia-1, 4-(((1S,4R,10S)-9-chloro-6-hydroxy-1-methyl-3,5-dioxo-1,3,4,5-tetrahydro-1,4-methanobenzo[c]oxepin-10-yl)methyl)-2,5-dihydro-3,6-dioxohexa-1,4-dienecarboxamide]
- mPTP-Opening inhibitory activity at 1.0 μM compound concentration CRC/CRC (DMSO) [1]: 1.66

SMILES: C[C@@]12OC(=O)[C@@H](C(=O)c3c(O)ccc(Cl)c31)[C@@H]2Cc1c(O)c(O)c(C(N)=O)c(O)c1O [Compound Ia-2, 4-(((1S,4R,10S)-9-chloro-6-hydroxy-1-methyl-3,5-dioxo-1,3,4,5-tetrahydro-1,4-methanobenzo[c]oxepin-10-yl)methyl)-2,3,5,6-tetrahydroxybenzamide]
- mPTP-Opening inhibitory activity at 1.0 μM compound concentration CRC/CRC (DMSO) [1]: 1.50

SMILES: C[C@@H]1c2cccc(O)c2C(=O)C[C@@H]1CC1=C(O)C(=O)C(C(N)=O)=C(O)C1=O [Compound Ia-3, 2,5-dihydroxy-4-(((1S,2S)-5-hydroxy-1-methyl-4-oxo-1,2,3,4-tetrahydronaphthalen-2-yl)methyl)-3,6-dioxocyclohexa-1,4-dienecarboxamide]
- mPTP-Opening inhibitory activity at 1.0 μM compound concentration CRC/CRC (DMSO) [1]: 3.00

SMILES: C[C@@]12OC(=O)[C@@H](C(=O)c3c(O)cccc31)[C@@H]2CC1=C(O)C(=O)C(C#N)=C(O)C1=O [Compound Ia-4, 2,5-dihydroxy-4-(((1S,4R,10S)-6-hydroxy-1-methyl-3,5-dioxo-1,3,4,5-tetrahydro-1,4-methanobenzo[c]oxepin-10-yl)methyl)-3,6-dioxocyclohexa-1,4-dienocarbonitrile]
- mPTP-Opening inhibitory activity at 1.0 μM compound concentration CRC/CRC (DMSO) [1]: 1.59
